What follows are compounds tested against Protein cereblon (Homo sapiens, UniProt Q96SW2) (assay: Cereblon (CRBN) Target Engagement).
Protocol: Cereblon target engagement was monitored by Bioluminescence Resonance Energy Transfer (BRET) in transfected HEK-293T cells using the NanoBRET TE Intracellular E3 Ligase Assay (Promega). Briefly, 384-well plates (white opaque plates, Corning 3574, low binding surface) were seeded with transfected HEK-293T cells (38 uL/well). 2 uL of 10 uM CRBN tracer (diluted 1:5 in Tracer Dilution Buffer) was added to each well. Plates were centrifuged at 320 g for 1 min at room temperature. Test compounds were added in a 11-point dilution series (typically […]) using a TECAN D300e Digital Dispenser. Plates were shaken for 2 minutes on a microplate shaker to mix compounds. Plates were centrifuged at 320 g for 1 min at room temperature, and subsequently incubated for 2 hours at 37 C.After incubation, plates were allowed to cool to room temperature for 15 minutes. 20 uL of 3 Complete NanoBRET Nano-Glo Substrate plus Inhibitor Solution (Promega, 1:166 Substrate and 1:500 dilution of Extracellular NanoLuc Inhibitor diluted in Opti-MEM) were added to each well. Plates were incubated with shaking at room temperature for 3 minutes covered with foil. Plates were read on a CLARIOstar microplate reader (BMG LabTech), measuring at 450 nm (donor emission) and 610 nm (acceptor emission). The IC50 values were determined by regression to best fit four-parameter logistic curves using GraphPad Prism.

Protein cereblon, sequence (Q96SW2 whole entry): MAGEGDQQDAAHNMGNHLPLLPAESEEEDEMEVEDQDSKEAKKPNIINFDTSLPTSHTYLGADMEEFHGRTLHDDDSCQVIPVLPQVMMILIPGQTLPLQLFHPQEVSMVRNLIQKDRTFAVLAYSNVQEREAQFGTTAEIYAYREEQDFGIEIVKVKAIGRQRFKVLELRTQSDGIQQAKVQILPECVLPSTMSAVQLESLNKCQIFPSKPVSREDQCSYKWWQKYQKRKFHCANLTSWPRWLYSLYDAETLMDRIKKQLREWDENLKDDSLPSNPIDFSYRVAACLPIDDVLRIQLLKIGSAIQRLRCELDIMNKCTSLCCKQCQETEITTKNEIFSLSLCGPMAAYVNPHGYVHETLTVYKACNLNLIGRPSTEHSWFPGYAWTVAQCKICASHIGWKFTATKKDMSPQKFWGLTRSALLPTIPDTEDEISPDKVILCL

| EC50 [nM] | SMILES |
| --- | --- |
| > 10000 | O=C1NC(=O)C2(N3Cc4cc(O[C@H]5CCC[C@@H]5N5CC(c6ccc(F)cc6Cl)C5)ccc4C3=O)CC1C2 [US20240246935, Example 86] |
| > 10000 | O=C1NC(=O)C2(N3Cc4cc(O[C@H]5CCC[C@@H]5N5CC(c6cccc(F)c6)C5)ccc4C3=O)CC1C2 [US20240246935, Example 87] |
| 30.2 | O=C1CCC(N2Cc3cc(O[C@H]4CCC[C@@H]4N4CC(c5cccc(F)c5)C4)ccc3C2=O)C(=O)N1 (some centres not stated) [US20240246935, Example 88] |
| 6810 | O=C1NC(=O)C2(N3Cc4cc(O[C@H]5CCCC[C@@H]5N5CC(c6cccc(F)c6)C5)ccc4C3=O)CC1C2 [US20240246935, Example 89] |
| 15 | O=C1CCC(N2Cc3cc(O[C@H]4CCCC[C@@H]4N4CC(c5ccc(F)cc5Cl)C4)ccc3C2=O)C(=O)N1 (some centres not stated) [US20240246935, Example 103] |
| 18 | O=C1CCC(N2Cc3cc(O[C@H]4CCC[C@@H]4N4CC(c5ccc(F)cc5Cl)C4)ccc3C2=O)C(=O)N1 (some centres not stated) [US20240246935, Example 104] |
| > 10000 | O=C1NC(=O)C2(N3Cc4cc(O[C@H]5CCC[C@@H]5N5CCC(c6ccccc6)C5)ccc4C3=O)CC1C2 (some centres not stated) [US20240246935, Example 107] |

From BindingDB's records for patent US20240246935 (Plexium, Inc., 2024)
